SMILES strings stand for the structures.

For orientation: logP means the decadic logarithm of the partition coefficient of the neutral form, usually between octanol and water.

As for `CN(CCO)c1ccc(/N=N/c2c(Cl)cc([N+](=O)[O-])cc2Cl)cc1`, the logP worked out at 4.34.

Molecule `CNc1cccc2c1C(=O)c1ccccc1C2=O` showed a logP of 2.87. The same measure for `Nc1ccc(Nc2ccc([N+](=O)[O-])cc2[N+](=O)[O-])cc1`: 3.32. The same measure for `Nc1ccc(N=Nc2ccccc2)cc1`: 2.62. The molecule `Oc1ccc(/N=N/c2ccccc2)cc1` registered a logP of 3.18. Regarding `O=C1c2ccc(O)c(O)c2C(=O)c2c(O)ccc(O)c21`, the lipophilicity (logP) came to 2.01.

Consider `O=C1C(c2[nH]c3ccccc3c2O)=Nc2ccccc21`, for which the lipophilicity (logP) was found to be 2.63. Under `Cc1cc(N(CCO)CCO)ccc1/N=N/c1ccc([N+](=O)[O-])cc1` stands 2.7; under `O=[N+]([O-])c1ccc(Nc2ccc(O)cc2)c([N+](=O)[O-])c1`, 3.88; under `COc1cc(N)c2c(c1N)C(=O)c1ccccc1C2=O`, 1.29. In turn, `Cc1cc(N(CCO)CCC#N)ccc1/N=N/c1ccc([N+](=O)[O-])cc1` had a logP of 2.97.

`Cc1cc(N(CCO)CCO)ccc1/N=N/c1ccccc1` gave a logP of 2.7. Under `O=c1[nH]c2ccccc2c(O)c1/N=N/c1ccccc1` stands 4.2. With `CNc1ccc(O)c2c1C(=O)c1c(O)ccc(NC)c1C2=O`, the logP worked out at 1.61. `CCN(CCO)c1ccc(/N=N/c2ccc([N+](=O)[O-])cc2Cl)cc1` gave a log partition coefficient (logP) of 4.08.

`O=[N+]([O-])c1ccc(/N=N/c2ccc(N(CCO)CCO)cc2Cl)cc1` displayed a logP of 2.93. `O=[N+]([O-])c1ccc(/N=N/c2ccccc2)cc1` came in with a logP of 3.59.

Regarding `O=[N+]([O-])c1ccc(/N=N/c2ccc(Nc3ccccc3)cc2)cc1`, the logP was determined as 5.07. Turning to `CN(C)c1ccc(/N=N/c2ccccc2)cc1`, the lipophilicity (logP) came to 4.05. The molecule `CCN(CCO)c1ccc(/N=N/c2ccc([N+](=O)[O-])cc2)cc1` showed a logP of 3.37. The same measure for `CCN(CC)c1ccc(/N=N/c2ccc([N+](=O)[O-])cc2)cc1`: 4.69; for `CCN(CCO)c1ccc(/N=N/c2ccc([N+](=O)[O-])cc2[N+](=O)[O-])cc1`: 3.11. The same measure for `Cc1cc(N(CCO)CCO)ccc1/N=N/c1ccc([N+](=O)[O-])cc1[N+](=O)[O-]`: 2.44; for `O=[N+]([O-])c1ccc(/N=N/c2ccc(N(CCO)CCO)cc2)cc1`: 2.05; for `O=C1c2ccccc2C(=O)c2c(O)c(O)cc(O)c21`: 1.84. With `O=C1c2ccccc2C(=O)C1c1nc2ccccc2cc1O`, the logP was 2.49. The same measure for `CC(=O)Nc1ccc(/N=N/c2cc(C)ccc2O)cc1`: 2.85; for `Cc1ccc2c(c1N)C(=O)c1ccccc1C2=O`: 2.8. Under `Cc1cc(N(CCO)CCO)ccc1/N=N/c1c(Cl)cc([N+](=O)[O-])cc1Cl` stands 4.12. Molecule `CN(C)c1ccc(/N=N/c2ccc([N+](=O)[O-])cc2)cc1` gave a lipophilicity (logP) of 3.79.

As to `O=[N+]([O-])c1ccc(/N=N/c2ccc(N(CCO)CCO)cc2)c([N+](=O)[O-])c1`, the lipophilicity (logP) is 1.79. Under `CNc1ccc(NCCO)c2c1C(=O)c1ccccc1C2=O` stands 1.94; under `COc1cc([N+](=O)[O-])ccc1/N=N/c1ccc(N(CCO)CCO)cc1`, 2.27; under `O=C1c2ccccc2C(=O)c2c1ccc(O)c2O`, 2.34. Under `O=C1c2ccccc2C(=O)c2c(O)ccc(O)c21` stands 2.34; under `CCOc1cc(/N=N/c2c(Br)cc([N+](=O)[O-])cc2[N+](=O)[O-])c(NC(C)=O)cc1N(CCOC(C)=O)CCOC(C)=O`, 3.56; under `Nc1ccc(O)c2c1C(=O)c1ccccc1C2=O`, 1.8. Under `O=[N+]([O-])c1ccc(Nc2ccccc2)c([N+](=O)[O-])c1` stands 4.55; under `c1ccc2oc(-c3ccc(-c4nc5ccccc5o4)s3)nc2c1`, 5.97.

With `Cc1cc(N(CCO)CCO)ccc1/N=N/c1ccc([N+](=O)[O-])cc1Cl`, the logP was 3.41. Under `Cc1cc(N(CCO)CCO)ccc1/N=N/c1c(Cl)cc([N+](=O)[O-])cc1[N+](=O)[O-]` stands 3.15; under `Cc1cc(Cl)cc2c1C(=O)/C(=C1\Sc3cc(Cl)cc(C)c3C1=O)S2`, 6.02.

`O=C1c2ccccc2C(=O)c2c(NCCO)cccc21` registered a log partition coefficient (logP) of 2.11.

Molecule `Nc1c(Oc2ccccc2)cc(O)c2c1C(=O)c1ccccc1C2=O` came in with a logP of 4.68. The molecule `OCCN(CCO)c1ccc(/N=N/c2ccccc2)cc1` returned a log partition coefficient (logP) of 2.31.

`Nc1ccc(/N=N/c2ccc([N+](=O)[O-])cc2)cc1` registered a lipophilicity (logP) of 2.37. Take `O=C1C(c2[nH]c3c(Br)cc(Br)cc3c2O)=Nc2c(Br)cc(Br)cc21`: the logP worked out at 6.66. The same measure for `CNc1ccc(NC)c2c1C(=O)c1ccccc1C2=O`: 2.7; for `Clc1ccc(/N=N/c2ccccc2)cc1`: 4.56. The same measure for `O=C1c2ccccc2C(=O)c2c(NCCO)ccc(NCCO)c21`: 1.17.
